Some results are limits rather than exact numbers.

Experiment [1] concerns the target Voltage-gated inwardly rectifying potassium channel KCNH2 (Homo sapiens, UniProt Q12809). The class given is functional. Conditions: read-out: AC50.
The target of experiment [2] is 3',5'-cyclic-AMP phosphodiesterase 4D (Homo sapiens, UniProt Q08499). The class given is functional.
Another experiment concerns the target D(3) dopamine receptor (Homo sapiens, UniProt P35462).
In experiment [3] the target is 5-hydroxytryptamine receptor 2B (Homo sapiens, UniProt P41595). The class given is functional, cell-based.
Chain of 5-hydroxytryptamine receptor 2B (P41595 whole entry): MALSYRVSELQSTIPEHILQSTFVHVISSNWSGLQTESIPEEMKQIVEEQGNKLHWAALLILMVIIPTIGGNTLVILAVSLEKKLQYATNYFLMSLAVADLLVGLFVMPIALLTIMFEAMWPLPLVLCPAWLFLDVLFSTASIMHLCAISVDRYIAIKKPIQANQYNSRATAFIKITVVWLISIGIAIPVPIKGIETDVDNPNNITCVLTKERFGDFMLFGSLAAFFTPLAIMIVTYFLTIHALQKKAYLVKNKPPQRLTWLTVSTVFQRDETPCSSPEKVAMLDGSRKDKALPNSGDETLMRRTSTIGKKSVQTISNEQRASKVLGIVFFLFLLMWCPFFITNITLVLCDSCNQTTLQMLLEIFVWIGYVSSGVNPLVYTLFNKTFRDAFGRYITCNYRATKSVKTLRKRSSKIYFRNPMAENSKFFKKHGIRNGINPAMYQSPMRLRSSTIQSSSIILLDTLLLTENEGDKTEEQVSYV
Experiment [4] has as its target T1, Alpha-2A adrenergic receptor (Homo sapiens, UniProt P08913).
T1 sequence (P08913 whole entry): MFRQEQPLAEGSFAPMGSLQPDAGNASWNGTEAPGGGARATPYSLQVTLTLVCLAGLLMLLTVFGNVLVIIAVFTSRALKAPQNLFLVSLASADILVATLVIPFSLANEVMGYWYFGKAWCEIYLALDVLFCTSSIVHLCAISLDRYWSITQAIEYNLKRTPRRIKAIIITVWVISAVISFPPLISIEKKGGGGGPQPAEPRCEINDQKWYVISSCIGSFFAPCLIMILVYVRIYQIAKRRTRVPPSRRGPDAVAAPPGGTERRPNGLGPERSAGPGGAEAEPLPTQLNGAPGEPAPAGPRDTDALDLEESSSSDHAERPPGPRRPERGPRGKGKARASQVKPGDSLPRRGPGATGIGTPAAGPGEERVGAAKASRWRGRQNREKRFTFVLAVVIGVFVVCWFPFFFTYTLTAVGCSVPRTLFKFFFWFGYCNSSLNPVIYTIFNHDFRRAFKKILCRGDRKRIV
Format: functional, cell-based.

The next experiment deals with T2, Adenosine receptor A3 (Homo sapiens, UniProt P0DMS8).
T2 sequence (P0DMS8 whole entry): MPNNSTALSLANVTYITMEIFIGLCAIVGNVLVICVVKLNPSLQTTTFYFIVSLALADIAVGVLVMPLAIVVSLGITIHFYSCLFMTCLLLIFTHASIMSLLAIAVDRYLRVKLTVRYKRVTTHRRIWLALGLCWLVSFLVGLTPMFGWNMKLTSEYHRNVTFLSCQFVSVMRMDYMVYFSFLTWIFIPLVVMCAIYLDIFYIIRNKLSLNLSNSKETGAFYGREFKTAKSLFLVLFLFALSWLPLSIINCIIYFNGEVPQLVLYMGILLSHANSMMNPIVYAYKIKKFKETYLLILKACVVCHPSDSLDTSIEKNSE

The next experiment concerns the target D(1A) dopamine receptor (Homo sapiens, UniProt P21728). The class given is functional, cell-based.
Experiment [5] addresses T3, Prostaglandin G/H synthase 1 (Rattus norvegicus, UniProt Q63921).
T3 sequence (Q63921 whole entry): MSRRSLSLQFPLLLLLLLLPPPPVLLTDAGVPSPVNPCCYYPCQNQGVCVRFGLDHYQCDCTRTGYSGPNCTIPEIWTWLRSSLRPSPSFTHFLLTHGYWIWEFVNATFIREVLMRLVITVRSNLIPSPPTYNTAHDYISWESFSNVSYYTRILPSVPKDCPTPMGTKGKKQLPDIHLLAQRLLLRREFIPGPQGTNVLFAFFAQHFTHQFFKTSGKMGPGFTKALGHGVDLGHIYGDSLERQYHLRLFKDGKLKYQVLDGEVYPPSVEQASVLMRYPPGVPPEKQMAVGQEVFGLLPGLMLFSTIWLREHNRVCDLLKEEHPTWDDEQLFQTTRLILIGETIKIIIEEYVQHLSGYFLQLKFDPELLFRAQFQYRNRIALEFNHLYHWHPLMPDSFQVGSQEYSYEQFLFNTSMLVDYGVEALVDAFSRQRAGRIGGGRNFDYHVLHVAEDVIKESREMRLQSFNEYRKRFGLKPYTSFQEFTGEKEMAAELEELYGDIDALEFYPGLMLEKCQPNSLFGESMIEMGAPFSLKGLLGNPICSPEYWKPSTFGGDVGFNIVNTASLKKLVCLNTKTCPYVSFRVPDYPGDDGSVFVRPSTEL
Format: functional.

For experiment [6], the target named is T4, Alpha-2C adrenergic receptor (Homo sapiens, UniProt P18825).
T4 sequence (P18825 whole entry): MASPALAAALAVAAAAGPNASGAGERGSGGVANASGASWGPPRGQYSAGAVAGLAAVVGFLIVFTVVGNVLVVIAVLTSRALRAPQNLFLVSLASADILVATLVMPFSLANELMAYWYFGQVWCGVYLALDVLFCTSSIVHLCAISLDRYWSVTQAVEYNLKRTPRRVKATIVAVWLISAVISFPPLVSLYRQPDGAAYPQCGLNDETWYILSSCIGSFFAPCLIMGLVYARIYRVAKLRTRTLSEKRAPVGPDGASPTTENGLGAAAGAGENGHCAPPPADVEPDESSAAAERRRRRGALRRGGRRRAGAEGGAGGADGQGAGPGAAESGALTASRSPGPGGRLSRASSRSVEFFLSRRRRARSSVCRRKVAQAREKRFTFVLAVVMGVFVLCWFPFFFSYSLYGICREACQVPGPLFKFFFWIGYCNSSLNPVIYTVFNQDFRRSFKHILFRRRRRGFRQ
The class given is functional.

In experiment [7] the target is T1, Alpha-2A adrenergic receptor. Format: functional, cell-based. The source holds these as a separate data set.
In experiment [8] the target is T5, Cholecystokinin receptor type A (Homo sapiens, UniProt P32238).
T5 sequence (P32238 whole entry): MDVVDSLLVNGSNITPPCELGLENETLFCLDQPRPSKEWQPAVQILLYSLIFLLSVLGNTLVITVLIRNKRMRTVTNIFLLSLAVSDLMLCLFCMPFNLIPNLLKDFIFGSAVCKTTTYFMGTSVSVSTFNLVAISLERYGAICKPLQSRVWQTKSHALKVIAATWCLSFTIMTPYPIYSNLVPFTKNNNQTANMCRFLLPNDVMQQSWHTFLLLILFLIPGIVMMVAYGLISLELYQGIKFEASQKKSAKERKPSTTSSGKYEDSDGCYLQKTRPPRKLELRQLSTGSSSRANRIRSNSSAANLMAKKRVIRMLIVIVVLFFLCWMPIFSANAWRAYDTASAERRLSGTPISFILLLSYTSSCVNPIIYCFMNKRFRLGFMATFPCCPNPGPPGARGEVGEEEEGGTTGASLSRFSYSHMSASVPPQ

For experiment [9], the target named is Gamma-aminobutyric acid receptor subunit alpha-1 (Rattus norvegicus, UniProt P62813). The class given is functional.
Chain of Gamma-aminobutyric acid receptor subunit alpha-1 (P62813 whole entry): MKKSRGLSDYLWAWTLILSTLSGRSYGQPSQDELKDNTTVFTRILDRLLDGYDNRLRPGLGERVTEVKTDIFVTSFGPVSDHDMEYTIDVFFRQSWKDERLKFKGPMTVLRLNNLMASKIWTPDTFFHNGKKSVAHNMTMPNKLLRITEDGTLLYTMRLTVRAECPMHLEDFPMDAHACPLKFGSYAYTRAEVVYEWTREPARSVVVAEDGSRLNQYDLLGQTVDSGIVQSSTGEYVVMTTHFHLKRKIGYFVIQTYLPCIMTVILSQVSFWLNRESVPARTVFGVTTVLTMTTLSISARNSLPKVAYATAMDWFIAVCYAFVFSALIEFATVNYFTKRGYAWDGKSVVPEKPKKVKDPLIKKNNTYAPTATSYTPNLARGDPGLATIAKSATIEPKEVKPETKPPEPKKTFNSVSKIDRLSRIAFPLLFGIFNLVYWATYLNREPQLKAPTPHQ
The target of a further experiment is Melanocortin receptor 3 (Homo sapiens, UniProt P41968).
Chain of Melanocortin receptor 3 (P41968 whole entry): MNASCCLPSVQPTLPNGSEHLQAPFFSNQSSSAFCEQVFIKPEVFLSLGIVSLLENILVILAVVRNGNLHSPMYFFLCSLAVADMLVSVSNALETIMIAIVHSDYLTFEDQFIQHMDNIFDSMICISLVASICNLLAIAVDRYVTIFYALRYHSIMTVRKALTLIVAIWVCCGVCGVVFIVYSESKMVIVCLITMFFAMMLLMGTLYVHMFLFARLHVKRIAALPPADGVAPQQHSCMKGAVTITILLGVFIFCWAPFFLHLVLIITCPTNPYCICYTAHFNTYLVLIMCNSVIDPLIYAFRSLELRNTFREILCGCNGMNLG
Further: assay procedure not described here.

Chain of D(1A) dopamine receptor (P21728 whole entry): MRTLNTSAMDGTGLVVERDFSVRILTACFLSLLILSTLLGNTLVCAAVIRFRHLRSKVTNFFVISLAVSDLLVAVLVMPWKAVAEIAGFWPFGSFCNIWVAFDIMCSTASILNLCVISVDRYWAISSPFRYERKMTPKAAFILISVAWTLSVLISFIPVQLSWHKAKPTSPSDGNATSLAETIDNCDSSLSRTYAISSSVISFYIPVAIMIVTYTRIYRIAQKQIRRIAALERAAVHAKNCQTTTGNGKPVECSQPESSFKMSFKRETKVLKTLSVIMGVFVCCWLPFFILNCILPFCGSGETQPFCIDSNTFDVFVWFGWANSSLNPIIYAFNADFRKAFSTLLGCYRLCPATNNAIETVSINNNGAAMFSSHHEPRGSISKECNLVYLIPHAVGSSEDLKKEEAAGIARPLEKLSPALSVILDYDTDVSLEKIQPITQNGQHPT
Chain of D(3) dopamine receptor (P35462 whole entry): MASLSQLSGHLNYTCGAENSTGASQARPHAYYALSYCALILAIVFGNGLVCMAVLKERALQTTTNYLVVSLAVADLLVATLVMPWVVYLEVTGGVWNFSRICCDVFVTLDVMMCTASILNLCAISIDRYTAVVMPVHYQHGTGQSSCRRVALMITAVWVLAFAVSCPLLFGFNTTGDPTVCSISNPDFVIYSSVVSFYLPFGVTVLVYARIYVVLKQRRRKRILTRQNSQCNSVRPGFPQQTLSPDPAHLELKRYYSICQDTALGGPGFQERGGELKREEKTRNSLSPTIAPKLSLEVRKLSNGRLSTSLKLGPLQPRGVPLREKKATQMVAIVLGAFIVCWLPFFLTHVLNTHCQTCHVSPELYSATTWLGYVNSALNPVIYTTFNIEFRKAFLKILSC
Chain of Voltage-gated inwardly rectifying potassium channel KCNH2 (Q12809 whole entry): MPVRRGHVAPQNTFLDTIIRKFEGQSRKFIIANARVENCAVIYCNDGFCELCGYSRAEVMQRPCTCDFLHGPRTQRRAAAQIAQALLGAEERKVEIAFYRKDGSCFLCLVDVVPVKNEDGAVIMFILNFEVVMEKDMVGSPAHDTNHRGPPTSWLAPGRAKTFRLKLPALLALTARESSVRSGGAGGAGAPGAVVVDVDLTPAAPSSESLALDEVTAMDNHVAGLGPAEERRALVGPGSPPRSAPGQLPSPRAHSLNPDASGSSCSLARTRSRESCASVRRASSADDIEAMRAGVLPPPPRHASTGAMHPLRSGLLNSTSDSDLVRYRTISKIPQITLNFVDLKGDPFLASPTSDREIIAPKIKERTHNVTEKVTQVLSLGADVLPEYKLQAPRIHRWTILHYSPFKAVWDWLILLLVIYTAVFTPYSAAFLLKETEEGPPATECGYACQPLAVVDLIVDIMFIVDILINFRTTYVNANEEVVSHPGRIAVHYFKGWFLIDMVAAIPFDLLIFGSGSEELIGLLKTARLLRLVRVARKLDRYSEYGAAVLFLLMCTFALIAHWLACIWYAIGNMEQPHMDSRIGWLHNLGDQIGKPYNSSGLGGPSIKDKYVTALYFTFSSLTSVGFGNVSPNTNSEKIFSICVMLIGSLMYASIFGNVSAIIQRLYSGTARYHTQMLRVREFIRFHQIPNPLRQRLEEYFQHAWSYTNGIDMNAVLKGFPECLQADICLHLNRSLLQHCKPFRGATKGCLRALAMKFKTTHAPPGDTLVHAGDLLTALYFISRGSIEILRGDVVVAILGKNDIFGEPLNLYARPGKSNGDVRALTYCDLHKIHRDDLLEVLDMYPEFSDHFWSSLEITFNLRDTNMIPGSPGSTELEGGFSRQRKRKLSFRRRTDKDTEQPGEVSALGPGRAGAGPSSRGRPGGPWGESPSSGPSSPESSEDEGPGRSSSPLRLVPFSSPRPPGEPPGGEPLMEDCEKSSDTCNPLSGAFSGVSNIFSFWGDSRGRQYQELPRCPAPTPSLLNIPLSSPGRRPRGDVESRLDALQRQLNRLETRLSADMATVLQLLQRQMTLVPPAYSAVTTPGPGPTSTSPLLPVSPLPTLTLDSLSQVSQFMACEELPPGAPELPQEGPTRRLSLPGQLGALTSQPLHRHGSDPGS
Chain of 3',5'-cyclic-AMP phosphodiesterase 4D (Q08499 whole entry): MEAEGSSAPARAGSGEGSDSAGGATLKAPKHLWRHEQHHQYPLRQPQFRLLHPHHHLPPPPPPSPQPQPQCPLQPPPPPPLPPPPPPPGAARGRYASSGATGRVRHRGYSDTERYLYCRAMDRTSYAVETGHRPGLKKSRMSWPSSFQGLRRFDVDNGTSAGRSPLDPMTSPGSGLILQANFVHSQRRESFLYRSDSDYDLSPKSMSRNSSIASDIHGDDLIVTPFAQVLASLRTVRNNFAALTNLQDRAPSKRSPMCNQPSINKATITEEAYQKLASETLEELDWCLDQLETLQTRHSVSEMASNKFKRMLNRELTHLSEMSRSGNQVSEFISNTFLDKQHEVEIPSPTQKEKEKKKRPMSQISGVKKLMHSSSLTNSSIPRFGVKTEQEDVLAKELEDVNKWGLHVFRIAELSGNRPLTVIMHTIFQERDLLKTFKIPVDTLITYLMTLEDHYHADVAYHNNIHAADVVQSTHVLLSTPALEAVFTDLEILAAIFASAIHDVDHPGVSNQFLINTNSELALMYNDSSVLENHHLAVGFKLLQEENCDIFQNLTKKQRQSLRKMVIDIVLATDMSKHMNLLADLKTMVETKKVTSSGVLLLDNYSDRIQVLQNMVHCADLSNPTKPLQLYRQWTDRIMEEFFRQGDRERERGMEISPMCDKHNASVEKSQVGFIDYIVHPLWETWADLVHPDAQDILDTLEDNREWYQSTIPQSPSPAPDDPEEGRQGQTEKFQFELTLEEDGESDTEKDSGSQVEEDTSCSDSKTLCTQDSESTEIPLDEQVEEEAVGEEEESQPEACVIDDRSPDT

Take `COc1ccc2c(c1)C(=O)N(CCc1ccc(S(=O)(=O)NC(=O)NC3CCCCC3)cc1)C(=O)C2(C)C` [GLIQUIDONE]: the AC50 in [1] is > 30 µM; in experiment [2] it was 1.4 µM; at D(3) dopamine receptor, > 30 µM; in experiment [3] it was > 30 µM; in [4], > 30 µM; at Adenosine receptor A3 it was > 30 µM. The half-maximal activity concentration (AC50) (at D(1A) dopamine receptor; in experiment [5]; in [6]; in [7]; in experiment [8]; in [9]) was > 30 µM throughout. Moreover, the AC50 at Melanocortin receptor 3 is > 30 µM.

These data come from ChEMBL document CHEMBL5291721, “A preclinical secondary pharmacology resource illuminates target-adverse drug reaction associations of marketed drugs” (Nat Commun, 2023).
